Experimental data reported in US5629298A, “Adenosine as a positive inotrop in the compromised heart” (University of Massachusetts Medical Center, priority 1995, dated 1997).
Read-outs that look alike come from different tables or passages of the source.

How the values were obtained:
[1] = system: cultured ventricular myocytes; test: cAMP content of cultured ventricular myocytes (125I-cAMP RIA); assay type: cell-based, rat; details: 1 μM DMPX (FIG. 12)
Procedure: When myocytes were to be used for biochemical studies, each of the culture dishes was preincubated for 2 hours with 1 ml of MEM containing 33 μg of laminin in a 37° C. incubator gassed with 5% CO2 in room air. The laminin solution was removed prior to myocyte seeding. After seeding, the dishes were incubated for an additional 2 hours. The settling and short term culture procedures were performed to purify the myocytes so that >95% of the myocytes adhering to the dishes were rod shaped.
Cyclic AMP levels were determined in cultures of ventricular myocytes according to the following method. After the 2-hour incubation period, the MEM was aspirated and replaced with 2 ml of fresh MEM. Adenosine agonists, ISO, or adenosine antagonists were added to the medium bathing the cells at the concentrations and times indicated. The experiment was terminated by removing the medium from the dish and adding 200 μl of 1N HCl over the cultured myocyte surface. The dishes were then frozen in liquid N2 and stored at -70° C. or held on ice momentarily until extraction was initiated.
For assay, the contents of the dishes were transferred (using 1 ml of distilled/deionized H2 O) into microcentrifuge tubes. The extracts were heated for 1 hour at 57° C. and sonicated for 10 minutes. The extracts were then centrifugated at 14,000 x g for 15 minutes. The supernatant was removed, evaporated, reconstituted in 500 μl of 50 mM sodium acetate buffer and assayed for cAMP using an ^125 I-cAMP RIA kit (Amersham). The pellet was solubilized with 0.1N NaOH and protein determined. The cAMP values are reported in pmol cAMP/mg protein of the extract pellet (total cell protein). This cAMP assay procedure routinely provided recovery values in excess of 90%.

[2] = system: rat ventricular myocytes; test: Contractile function of individual ventricular myocytes (line scan camera edge detection, paced at 0.5 Hz); assay type: cell-based; details: for activation at 10 µM: Rattus norvegicus, Ventricular myocyte
Procedure: Primary cultures of adult rat ventricular myocytes were prepared essentially according to previously described methods (Romano et al., Am. J. Physiol. 257:H1088 (1989)). Two male Sprague-Dawley rats (Charles River, Wilmington, Mass. or Harlan, Indianapolis, Ind.) were decapitated, and the hearts were rapidly excised and constant pressure (70 cm H2) and nonrecirculated) perfused for 10 minutes through the aortas with filtered (0.45 μm membrane filter) perfusing solution (NaCl, 118 mM; glucose, 10 mM; NaHCO3 25 mM; KCl, 4.69 mM; MgSO4 1.18 mM; and KH2 PO4, 1.18 mM; (pH 7.4)), to which […] was added, at 37° C. After equilibration, the hearts were constant pressure perfused with fresh physiological saline ("PS") containing no added Ca^2+ until spontaneous contractions ceased (i.e., ~30 seconds). The hearts were then perfused for 4-10 minutes in a nonrecirculating manner with PS containing 0.73 mg/ml collagenase, 0.16 mg/ml hyaluronidase, 1 mg/ml recrystallized bovine serum albumin ("BSA") and 48.4 μM Ca^2+ at a rate of 3-4 ml/min/heart. Ventricles, free of atria, were removed from the perfusion system, cut into 8 pieces and placed in a 50 ml Erlenmeyer flask with 5 ml of PS containing 0.73 mg/ml collagenase, 0.16 mg/ml hyaluronidase, 2.5 mg/ml BSA, and 50 μM Ca^2+ (incubation solution). The flask was gently shaken (40 cycles/min) in a reciprocating water bath with continuous gassing (95% O2, 5% CO2) for 7 minutes at 37° C. The incubation solution was aspirated and this shaking procedure was repeated with fresh incubation solution 3-5 times depending on the likelihood that the tissue was ready to dissociate. After the final incubation period, the solution was aspirated and replaced with 10 ml of fresh incubation solution. The flask was then shaken rapidly (120 cycles/min) for 10 minutes with gassing to dissociate the myocytes. The flask contents were filtered through a 250 μm nylon mesh into a 50 ml polypropylene centrifuge tube, to which 40 ml of PS containing 5.95 mg/ml BSA and 99.7 μm Ca^2+ (wash solution) was gradually added.
The myocytes were allowed to settle for 15 minutes, and the upper two thirds of the wash solution was aspirated. Upon the addition of 30-35 ml of wash solution, this settling step was repeated. The wash solution was aspirated and the myocyte pellet was resuspended in 10 ml of minimum essential medium ("MEM"). The myocyte suspension was allowed to settle for 5 minutes and then brought to a final volume of 22 ml with MEM. Two milliliters of the myocyte suspension was seeded onto each of 60 mm culture dishes containing 2 ml of MEM.
The contractile function of individual myocytes was assessed by dispersing 50-100 cells in a 506 μl myocyte chamber (11×23×2 mm deep). The chamber (FIG. 1) was continuously suffused (850 μl/min) with fresh suffusion solution ("SS") in mM: 136.4 NaCl, 4.7 KCl, 1.0 CaCl2, 10 hydroxyethylpiperzine-ethanesulfonicacid (HEPES), 1.0 NaHCO3, 1.2 MgSO4, 1.2 KH2 PO4, 10 glucose, 0.6 ascorbate, 1.0 pyruvate) at 20° C. The chamber was mounted on an inverted microscope stage and contained platinum wire electrodes for initiating myocyte contraction at 0.5 Hz (voltage 10% above threshold for 5 msec duration).
The image of the myocyte was projected via an inverted microscope at 300× onto a line scan camera (Fairchild, Model 1600R) containing a linear array (1×3456) of photodiodes. When aligned with the longitudinal axis of the cell the camera detected the movement of the 2 ends of the myocyte upon contraction (shortening and relengthening). […] When the myocyte was transilluminated, both ends of the cell were easily discriminated. Myocyte length and length change with respect to time for a single contraction was measured by determining the pixels in which the appropriate transitions between light and dark occurred. The line scan camera was calibrated with a stage micrometer scaled in 10 μm divisions. The signals from the camera were directed to a Hewlett Packard computer (Model Vectra RS/20C). […]

[3] = system: ventricular myocyte membrane adenylyl cyclase; test: Adenylyl cyclase activity of ventricular myocyte membranes; assay type: biochemical, rat
Procedure: After a 3-4 hour incubation period, myocytes were harvested by placing the culture dishes on ice; aspirating and discarding the culture medium; scraping the attached cells into 1 ml of ice cold buffer (pH 7.4) containing 10 mM HEPES and 1 mM dithiothreitol (DTT); and transferring the mixture to a 40 ml centrifuge tube. The culture dishes were rinsed twice with buffer, and the rinses were added to the centrifuge tube. The myocytes were centrifuged at 45,000 x g for 45 minutes and the supernatant was discarded. The pellet was resuspended in 40 mM HEPES (pH 7.4) to yield 3.5-4 mg protein/ml and homogenized with a small clearance Dounce tissue grinder (8 strokes). The membranes were centrifugated as described above, resuspended (3-4 mg protein/ml) in 40 mM HEPES (pH 7.4), and assayed for adenylyl cyclase activity immediately or stored at -80° C. and assayed within 10 days.
The assay system used to measure adenylyl cyclase activity minimizes the formation of endogenous adenosine. The assay used was essentially as described by Romano et al. (supra). Myocyte membranes (15-25 μg protein) were incubated in 50 μl of a buffer containing 40 mM HEPES (pH 7.4), 5 mM MgCl2, 1 mM DTT, 5.5 mM KCl, 0.1 mM 2'-deoxy-cAMP (dcAMP), 0.1 mM 2'-deoxy ATP (dATP), 20 mM phosphoenolpyruvate, 2 units pyruvate kinase, 0.25 units adenosine deaminase, 1 mM ascorbic acid, 100 mM NaCl, 0.1 mM ethyleneglycol-bis (β-aminoethylether) N,N,N',N',-tetroaceticacid (EGTA), 10 μM guanosine 5'-triphosphate (GTP), and ~2×10^6 counts/minutes of [α-^32 P]dATP for 20 minutes at 30° C. The reaction was stopped by adding 40 μl of a solution containing 2% sodium dodecyl sulfate (SDS), 45 mM ATP, 1.3 mM cAMP, and [^3 H]dcAMP (~4000 count/min) and by boiling for 2 minutes.

[4] = Table 6, 10^-5 M SHA-082, 10^-5 M NECA, 10^-4 M adenosine, 2 × 10^-7 M DPCPX, 10^-5 M CGS-15943, mean ± SE, N = 6

| SMILES | effect on the increase in cAMP caused by 10 μM CGS-21680 [1] | activation at 10 µM ([2]; read-out: increase in DS) | activation at 10 µM ([2]; read-out: increase in LC) | activation at 10 µM ([2]; read-out: increase in TPS) | activation at 10 µM ([2]; read-out: increase in TR) | +dL/dtmax, maximal rate of shortening [2, 4] | -dL/dtmax, maximal rate of relaxation [2, 4] | DS, duration of shortening [2, 4] | LC, maximum length change (shortening) with contraction [2, 4] | TPS, time-to-peak shortening [2, 4] | TR, time to 75% relaxation [2, 4] | contractile responses in the presence of 10 μM CGS-15943 ([2]; agonist at 10 μM) | increase in adenylyl cyclase activity ([3]; NECA 0 to 1 mM (FIG. 10)) | EC50 ([3]; without DPCPX, read-out: EC50 for activation of cyclase) |
| --- | --- | --- | --- | --- | --- | --- | --- | --- | --- | --- | --- | --- | --- | --- |
| C#CCn1c(=O)c2c(ncn2C)n(C)c1=O [DMPX, 3,7-dimethyl-1-propargylxanthine] | prevented |  |  |  |  |  |  |  |  |  |  |  |  |  |
| CCNC(=O)[C@H]1O[C@@H](n2cnc3c(N)ncnc32)[C@H](O)[C@@H]1O [NECA, N-ethylcarboxamidoadenosine] |  | 21% | 24% | 20% | 28% | 203 ± 9 μm/msec | 149 ± 12 μm/msec | 350 ± 15 ms | 21 ± 2 μm | 140 ± 5 ms | 340 ± 12 ms | not observed | approximately two-fold | 17 ± 5.7 µM |
